The text below walks through data of ChEMBL document CHEMBL5537186 (J Med Chem, 2024).

The nature of series [1]: Lipophilicity, logD of compound at pH 7.4. The class given is physicochemical. The note with it: buffer.
Series [2] in a line: Kinetic aqueous solubility of compound at pH 7.4. The format is physicochemical. The note with it: read-out: Kinetic_solubility.
The nature of series [3]: Metabolic stability in human hepatocytes assessed as compound remaining measured after 60 mins. The format is ADME, cell-based, Hepatocyte. The note with it: read-out: Stability.
Series [4] can be described thus: Dissociation constant, pKa of compound. The format is physicochemical.
Series [5] can be described thus: Kinetic aqueous solubility of compound at pH 4.5. The class given is physicochemical. The following applies: read-out: Kinetic_solubility.

The structures appear in SMILES notation. Converted amounts (≈) assume the structure as drawn.

In general, logD refers to the decadic logarithm of the distribution of all forms, ionised or not, between an organic phase and buffer at a given pH. Read a low logD as lower lipophilicity. For the molecule `Cc1ccc(NC(=O)N2CC[C@@H](C(F)(F)F)C2)cc1-c1cc(OCCO)nc(N2CCOCC2)c1`, the logD in series [1] amounted to 3.49. In addition, the solubility kinetic in series [2] turned out to be 83 µM (≈ 41 µg/mL). The remaining at 1 h in series [3] stood at 7%.

The term pKa denotes the negative logarithm of the acid dissociation constant. High values mean a group that holds its proton tightly, low ones a group that gives up its proton readily. In turn, `Cc1ccc(NC(=O)N2CC[C@@H](CC(F)(F)F)C2)cc1-c1cc(O[C@H](C)CO)nc(N2CCOCC2)c1` came in with a logD in series [1] of 3.99. The molecule also gave a pKa in series [4] of 3.8. Besides, the values for the solubility kinetic in series [5] and in series [2] were 19 µM (≈ 9.93 µg/mL) and 17 µM (≈ 8.88 µg/mL), respectively. Further, in series [3], the remaining at 1 h was 38%.
